From PubChem BioAssay AID220 (DTP/NCI, 2004) come the findings set out here.

The test system of this assay is CD8F1 mice, subcutaneous mammary adenocarcinoma, T/C%. The assay is described as follows: NCI In Vivo Anticancer Drug Screen. Data for tumor model Mammary Adenocarcinoma CD8F1 (subcutaneous) in CD8F1. Particulars: higher = larger tumour. The gist of the method: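 Transplantable tumors were established in mice, animals were dosed with compound or vehicle, and survival or tumor size was then measured in both groups. The treated result was divided by the control result.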

[1] abbreviates: endpoint: median tumor weight (est.), dose: 16.0 mg/kg/injection, schedule: Q07DX005 (ip), vehicle: Klucel (hydroxypropylcellulose) (HPC).

Several values for one entry are separate records, joined by “and”; a condition that tells them apart may be missing. Equal values may be shown once. Records with an inconclusive call do not appear.

On to `Cc1cc(=O)n2c3c(c4c(cc13)c(CN(C)C)cc(=O)n4C)OC2`, for which, for the setting “endpoint: median tumor weight change, dose: 62.0 mg/kg/injection, schedule: Q01DX001 (ip), vehicle: saline with Tween-80”, the T/C is 190 % of control.

As to `C[n+]1ccc(Nc2ccc(NC(=O)c3ccc(Nc4cc[n+](C)c5ccc(N)cc45)cc3)cc2)cc1`, the T/C was 51 % of control and 65 % of control under setting [1]; 24 % of control and 25 % of control (endpoint: median tumor weight (est.), dose: 32.0 mg/kg/injection, schedule: Q07DX005 (ip), vehicle: Klucel (hydroxypropylcellulose) (HPC)).

For `C[C@]12CC[C@@H]3c4ccc(OC(=O)Cc5ccc(N(CCCl)CCCl)cc5)cc4CC[C@H]3[C@@H]1CC[C@@H]2OC(=O)Cc1ccc(N(CCCl)CCCl)cc1`, the T/C was 54 % of control (endpoint: mean tumor weight, dose: 25.0 mg/kg/injection, schedule: Q07DX005 (ip), vehicle: saline with Tween-80); 47 % of control (endpoint: mean tumor weight, dose: 50.0 mg/kg/injection, schedule: Q07DX005 (ip), vehicle: saline with Tween-80); 45 % of control (endpoint: mean tumor weight, dose: 100.0 mg/kg/injection, schedule: Q07DX005 (ip), vehicle: saline with Tween-80); 38 % of control (endpoint: mean tumor weight, dose: 200.0 mg/kg/injection, schedule: Q07DX005 (ip), vehicle: saline with Tween-80); 65 % of control (endpoint: mean tumor weight, dose: 400.0 mg/kg/injection, schedule: Q07DX005 (ip), vehicle: saline with Tween-80); 79 % of control and 93 % of control (endpoint: median tumor weight (est.), dose: 25.0 mg/kg/injection, schedule: Q07DX005 (ip), vehicle: saline with Tween-80). Besides, the T/C is 45 % of control and 51 % of control (endpoint: median tumor weight (est.), dose: 50.0 mg/kg/injection, schedule: Q07DX005 (ip), vehicle: saline with Tween-80); 10 % of control (endpoint: median tumor weight (est.), dose: 400.0 mg/kg/injection, schedule: Q07DX005 (ip), vehicle: saline with Tween-80).

As to `CCC1OCC(C(Cl)CCl)O1` (centres undefined), the T/C (endpoint: median tumor weight (est.), dose: 25.0 mg/kg/injection, schedule: Q07DX005 (ip), vehicle: Klucel (hydroxypropylcellulose) (HPC)) was 93 % of control; the T/C (endpoint: median tumor weight (est.), dose: 50.0 mg/kg/injection, schedule: Q07DX005 (ip), vehicle: Klucel (hydroxypropylcellulose) (HPC)) is 109 % of control; the T/C (endpoint: median tumor weight (est.), dose: 100.0 mg/kg/injection, schedule: Q07DX005 (ip), vehicle: Klucel (hydroxypropylcellulose) (HPC)) was 74 % of control.

As to `[Cl][Sn]([c]1ccccc1)[c]1ccccc1`, the T/C runs as follows: (endpoint: median tumor weight change, dose: 1.56 mg/kg/injection, schedule: Q01DX001 (ip), vehicle: saline) 81 % of control; (endpoint: median tumor weight change, dose: 3.12 mg/kg/injection, schedule: Q01DX001 (ip), vehicle: saline) 63 % of control; (endpoint: median tumor weight change, dose: 6.25 mg/kg/injection, schedule: Q01DX001 (ip), vehicle: saline) 94 % of control; (endpoint: median tumor weight change, dose: 12.5 mg/kg/injection, schedule: Q01DX001 (ip), vehicle: saline) 81 % of control; (endpoint: median tumor weight change, dose: 25.0 mg/kg/injection, schedule: Q01DX001 (ip), vehicle: saline) 78 % of control; (endpoint: median tumor weight change, dose: 25.0 mg/kg/injection, schedule: Q01DX001 (ip), vehicle: water) 47 % of control.

Turning to `CC(C)(C)N1CC1CNC(=O)C(=O)NCC1CN1C(C)(C)C` (centres undefined), the T/C is 50 % of control (endpoint: median tumor weight change, dose: 15.6 mg/kg/injection, schedule: Q01DX001 (ip), vehicle: saline with Tween-80); 30 % of control (endpoint: median tumor weight change, dose: 15.62 mg/kg/injection, schedule: Q01DX001 (ip), vehicle: saline with Tween-80); 30 % of control and 37 % of control (endpoint: median tumor weight change, dose: 31.25 mg/kg/injection, schedule: Q01DX001 (ip), vehicle: saline with Tween-80).

On to `CC[n+]1ccc(Nc2ccc(NC(=O)c3ccc(C(=O)Nc4ccc(Nc5cc[n+](CC)c(N)n5)cc4)cc3)cc2)nc1N`, for which the T/C runs as follows: (endpoint: median tumor weight (est.), dose: 6.25 mg/kg/injection, schedule: Q07DX005 (ip), vehicle: suspension in saline) 257 % of control; (endpoint: median tumor weight (est.), dose: 25.0 mg/kg/injection, schedule: Q07DX005 (ip), vehicle: suspension in saline) 77 % of control; (endpoint: median tumor weight (est.), dose: 50.0 mg/kg/injection, schedule: Q07DX005 (ip), vehicle: suspension in saline) 45 % of control; (endpoint: median tumor weight (est.), dose: 100.0 mg/kg/injection, schedule: Q07DX005 (ip), vehicle: suspension in saline) 41 % of control; (endpoint: median tumor weight (est.), dose: 200.0 mg/kg/injection, schedule: Q07DX005 (ip), vehicle: suspension in saline) 20 % of control.

Consider `Nc1cccc(=O)[nH]1`, for which the T/C is 21 % of control (endpoint: median tumor weight (est.), dose: 50.0 mg/kg/injection, schedule: Q07DX005 (ip), vehicle: saline); 68 % of control (endpoint: median tumor weight (est.), dose: 100.0 mg/kg/injection, schedule: Q07DX005 (ip), vehicle: saline); 70 % of control (endpoint: median tumor weight (est.), dose: 200.0 mg/kg/injection, schedule: Q07DX005 (ip), vehicle: saline); 96 % of control and 100 % of control (endpoint: median tumor weight (est.), dose: 400.0 mg/kg/injection, schedule: Q07DX005 (ip), vehicle: saline); 47 % of control (endpoint: median tumor weight (est.), dose: 400.0 mg/kg/injection, schedule: Q07DX005 (ip), vehicle: suspension in saline); 78 % of control (endpoint: median tumor weight (est.), dose: 800.0 mg/kg/injection, schedule: Q07DX005 (ip), vehicle: saline). Moreover, the T/C by setting is: (endpoint: median tumor weight (est.), dose: 800.0 mg/kg/injection, schedule: Q07DX005 (ip), vehicle: suspension in saline) 56 % of control; (endpoint: median tumor weight (est.), dose: 1600.0 mg/kg/injection, schedule: Q07DX005 (ip), vehicle: suspension in saline) 59 % of control; (endpoint: median tumor weight change, dose: 62.5 mg/kg/injection, schedule: Q01DX001 (ip), vehicle: saline) 55 % of control; (endpoint: median tumor weight change, dose: 125.0 mg/kg/injection, schedule: Q01DX001 (ip), vehicle: saline) 78 % of control; (endpoint: median tumor weight change, dose: 250.0 mg/kg/injection, schedule: Q01DX001 (ip), vehicle: saline) 90 % of control; (endpoint: median tumor weight change, dose: 500.0 mg/kg/injection, schedule: Q01DX001 (ip), vehicle: saline) 72 % of control. For the setting “endpoint: median tumor weight change, dose: 1000.0 mg/kg/injection, schedule: Q01DX001 (ip), vehicle: saline”, the T/C was 70 % of control.

Turning to `CCCCCC(O)C1C(=O)OC(C)C(O)/C=C/C=C/C=C/C=C\C=C(\C)C(O)CC(O)CC(O)CC(O)CC(O)CC(O)CC1O` (centres undefined), the T/C (endpoint: median tumor weight change, dose: 62.5 mg/kg/injection, schedule: Q01DX001 (ip), vehicle: distilled water + Tween-80) is 150 % of control.

With `O=C1c2cccc(NCCCNCCO)c2C(=O)c2cccc(NCCCNCCO)c21`, the T/C is 36 % of control (endpoint: median tumor weight change, dose: 6.25 mg/kg/injection, schedule: Q01DX001 (ip), vehicle: acid diluted with saline); 47 % of control (endpoint: median tumor weight change, dose: 12.5 mg/kg/injection, schedule: Q01DX001 (ip), vehicle: acid diluted with saline); 29 % of control (endpoint: median tumor weight change, dose: 25.0 mg/kg/injection, schedule: Q01DX001 (ip), vehicle: acid diluted with saline); 23 % of control (endpoint: median tumor weight change, dose: 50.0 mg/kg/injection, schedule: Q01DX001 (ip), vehicle: acid diluted with saline); 54 % of control (endpoint: median tumor weight change, dose: 100.0 mg/kg/injection, schedule: Q01DX001 (ip), vehicle: acid diluted with saline).

For the compound `COC(=O)C12OCC34C(CC5C(C)=CC(=O)C(O)C5(C)C3C(O)C1O)OC(=O)C(OC(=O)CC(C)C)C24` (centres undefined), the T/C is, setting by setting: (endpoint: median tumor weight (est.), dose: 0.13 mg/kg/injection, schedule: Q07DX005 (ip), vehicle: saline + alcohol) 107 % of control; (endpoint: median tumor weight (est.), dose: 0.5 mg/kg/injection, schedule: Q07DX005 (ip), vehicle: saline + alcohol) 82 % of control; (endpoint: median tumor weight (est.), dose: 1.0 mg/kg/injection, schedule: Q07DX005 (ip), vehicle: saline + alcohol) 64 % of control; (endpoint: median tumor weight (est.), dose: 2.0 mg/kg/injection, schedule: Q07DX005 (ip), vehicle: saline + alcohol) 47 % of control.

Regarding `Nc1nc(=S)c2[nH]cnc2[nH]1`, the T/C (endpoint: median tumor weight (est.), dose: 1.0 mg/kg/injection, schedule: Q07DX005 (ip), vehicle: Klucel (hydroxypropylcellulose) (HPC)) is 71 % of control; the T/C (endpoint: median tumor weight (est.), dose: 2.0 mg/kg/injection, schedule: Q07DX005 (ip), vehicle: Klucel (hydroxypropylcellulose) (HPC)) was 74 % of control; the T/C (endpoint: median tumor weight (est.), dose: 4.0 mg/kg/injection, schedule: Q07DX005 (ip), vehicle: Klucel (hydroxypropylcellulose) (HPC)) is 42 % of control; the T/C (endpoint: median tumor weight (est.), dose: 8.0 mg/kg/injection, schedule: Q07DX005 (ip), vehicle: Klucel (hydroxypropylcellulose) (HPC)) was 20 % of control; the T/C (endpoint: median tumor weight (est.), dose: 8.0 mg/kg/injection, schedule: Q07DX005 (ip), vehicle: other) is 29 % of control; the T/C (endpoint: median tumor weight (est.), dose: 12.0 mg/kg/injection, schedule: Q07DX005 (ip), vehicle: other) was 19 % of control. Further, the T/C is 7 % of control under setting [1] and 16 % of control (endpoint: median tumor weight (est.), dose: 16.0 mg/kg/injection, schedule: Q07DX005 (ip), vehicle: other).

For `NCCCC(N)(C(=O)O)C(F)F` (centres undefined), the T/C (endpoint: median tumor weight change, dose: 125.0 mg/kg/injection, schedule: Q01DX001 (ip), vehicle: distilled water + alcohol) is 29 % of control; the T/C (endpoint: median tumor weight change, dose: 250.0 mg/kg/injection, schedule: Q01DX001 (ip), vehicle: distilled water + alcohol) was 51 % of control; the T/C (endpoint: median tumor weight change, dose: 500.0 mg/kg/injection, schedule: Q01DX001 (ip), vehicle: distilled water + alcohol) is 64 % of control; the T/C (endpoint: median tumor weight change, dose: 1000.0 mg/kg/injection, schedule: Q01DX001 (ip), vehicle: distilled water + alcohol) was 36 % of control; the T/C (endpoint: median tumor weight change, dose: 2000.0 mg/kg/injection, schedule: Q01DX001 (ip), vehicle: distilled water + alcohol) was 72 % of control.
